Test results as given in patent US9289365B2, “Compositions and methods for stimulating collagen synthesis in the skin” (Avon Products, Inc., priority 2011, dated 2016).

Each compound was assayed on Human dermal fibroblasts (assay: Stimulation of collagen synthesis in human dermal fibroblasts, procollagen type I C-peptide (PIP) EIA). Details: compound at 0.0005% in DMSO, triplicate, 48-hour incubation; procollagen type I C-peptide in conditioned medium; increase in collagen over DMSO control.
Type: cell-based
Protocol: The compounds 1-5, and 8-9 were assayed for stimulation of collagen synthesis as follows. Human dermal fibroblasts (Cascade Biologics, Portland, Oreg.) were plated at 10,000 cells/well in 96-well culture plates in supplemented medium (DMEM, 10% Fetal Bovine Serum, 1% Penicillin/Streptomycin and 1% L-Glutamine) overnight in humidified atmosphere of 10% CO2 at 37° C. The next day, the medium was replaced with fresh medium (DMEM, 1% Penicillin/Streptomycin and 1% L-Glutamine) and the compounds dissolved DMSO were added to the wells in triplicate at a concentration of 0.0005%, DMSO solution was used a control. Following 48-hour incubation, the plates were removed from the incubator and the medium from each well was collected for the procollagen assay.
Collagen production was measured using procollagen type I C-peptide (PIP) EIA kit (Takara Bio, Inc., Japan). Briefly, the conditioned medium was diluted 1:10 in Sample Diluent, 20 μl of diluted conditioned medium and 100 μl of antibody-POD conjugate solution were added to the wells of the Takara HASA plate. The ELISA plate was incubated at 37° C. for 3 hours before the wells were washed four times with 400 μl of 1×PBS. At the end of wash, 100 μl of substrate solution (supplied with kit) was added to the wells and incubated at room temperature for 15 minutes. The reaction was stopped by adding 100 μl of 1N sulfuric acid to the wells. The absorbance was measured on a spectrophotometer at 450 nm wavelength. The amount of procollagen peptide in the conditioned medium was calculated from the standard curve. The stimulation of collagen production was shown as an increase in collagen over the control.

SMILES	% Collagen Stimulation [%]
CCc1c(C(=O)N2CCCC2)cnn1-c1ccccc1Cl [Compound 1]	73.2
Cc1c(C(=O)N2CCCC2)c(CC(C)C)nn1-c1ccccc1 [Compound 2]	23.1
CCCc1c(C(=O)N2CCOCC2)cnn1-c1ccccc1Cl [Compound 3]	13.5
Cc1c(C(=O)N2CCCC2)cnn1-c1ccccc1 [Compound 4]	12.5
CCCc1c(C(=O)N2CCCC2)cnn1-c1ccccc1C [Compound 5]	45.23
Cc1ccccc1N1CCN(C(=O)c2cc(-c3ccccc3)nn2-c2ccc(Cl)c(Cl)c2)CC1 [Compound 8]	83.7
Cc1ccccc1N1CCN(C(=O)c2cc(-c3cccn3C)nn2-c2ccccc2Cl)CC1 [Compound 9]	62.2
